US20180016304A1, “SELF-ASSEMBLING ULTRASHORT ALIPHATIC DEPSIPEPTIDES FOR BIOMEDICAL APPLICATIONS” (Agency for Science, Technology and Research, priority 2015, published 2018)
Read-outs that look alike come from different tables or passages of the source. Where a SMILES comes first, the peptide text is derived from it.

Legend:
[1] = Minimum gelation concentration / hydrogel formation; format: physicochemical
Procedure: In order to determine the minimum gelation concentration in water, the depsipeptide was dissolved in MilliQ water.
Liskamp reported depsipetides based on the amylin (20-29) structure.

[2] = 2 mg/mL in PBS
Procedure: In order to test the degradation ability of the depsipeptide, 2 mg/mL was dissolved in PBS puffer at pH 5.7, 7.3 and 8.5. All samples were incubated at 37° C. and analysed by HPLC-MS.
In order to characterize the degradation products of the depsipeptide Ac-ILV-OH and HO-aGK-NH2 were synthesized and the retention time was determined by HPLC-MS.

[3] = test system: human mesenchymal stem cells (hMSCs); assay: Cytocompatibility, WST-1 cell metabolic activity assay; format: cell-based; conditions: for cytocompatibility / tolerance: fragments particularly if the acidity was neutralized
Procedure: Human mesenchymal stem cells, hMSCs, were obtained from Lonza (Basel, Switzerland) and cultured in MSC growth medium (MSCGM) with 5% fetal bovine serum, 2% L-glutamine and 0.1% penicillin-streptomycin (Lonza). The cell metabolic activity was measured with the Cell Proliferation Reagent WST-1 assay (Roche Diagnostics, Mannheim, Germany). Briefly, 5000 hMSC cells were seeded in each well and media containing the sample was added to the desired concentration (n=6). After incubation for 72 hours at 37° C., the media was aspirated and media containing 10% WST-1 reagent added for 2 hours. The absorbance at 450 nm was measured subtracting the absorbance at 600 nm. The absorbance readings were further normalized against cells cultured in media containing an equivalent volume of PBS (i.e. 100% cell survival) to determine the percentage cell viability. Cells cultured with an equivalent volume of ethanol were used as a negative control (i.e. 100% cell death).
In order to determine depsipeptide cytotoxicity and effect on cell proliferation, human mesenchymal stem cells (hMSCs) were incubated with various concentrations of the depsipeptide and their metabolic activity and viability was tested after 3 days. Cell viability decreased with increasing depsipeptide concentration. […] To address concerns that the cytotoxicity could be attributed to the degradation products following hydrolysis of the ester bond, the possible degradation products, the peptide Ac-ILV and depsipeptide HO-aGK-NH2, were also evaluated.

[4] = MilliQ water, depsipeptide sample left at room temperature

**Q.** Which hydrogel formation ([1]; 100 mg/mL dissolved in 90% water, 10% 10xPBS added) does the source give for `CC[C@H](C)[C@H](NC(C)=O)C(=O)N[C@@H](CC(C)C)C(=O)N[C@H](C(=O)OC(C)C(=O)NCC(=O)N[C@@H](CCCCN)C(N)=O)C(C)C` (some centres unmarked) [Ac-ILVaGK-NH2, Acetylated isoleucine-leucine-valine-lactic acid-glycine-lysine] (HELM PEPTIDE1{[ac].I.L.V.[CC(O[*:1])C(=O)[*:2]].G.K.[am]}$$$$V2.0) here?
**A.** Its hydrogel formation is “instantaneous hydrogel formation”.

**Q.** What about the minimum gelation concentration [1, 4] of the same compound?
**A.** Its minimum gelation concentration is 100 mg/mL.

**Q.** What about the “minimum gelation concentration relative to parent peptide Ac-IK6-NH2” value ([1]; in water as well as in 1xPBS buffer) of the same compound?
**A.** The value was “about 10 times”.

**Q.** What about the minimum gelation concentration ([1]; with PBS buffer added (1x PBS)) of the same compound?
**A.** Its minimum gelation concentration is 60 mg/mL.

**Q.** And the “stability (degradation)” value ([2]; pH 5.7, 37° C., compared with pH 7.3 and 8.5)?
**A.** The value was “most”.

**Q.** And the “stability (degradation)” value ([2]; pH 8.5, 37° C., compared with pH 5.7 and 7.3)?
**A.** Its value is “least stable”.

**Q.** And the “IC50 (cell viability)” value ([3]; 3 days (72 hours) incubation, WST-1)?
**A.** The value was “approximately 15 mg/mL”.

**Q.** With “Ac-IK6-NH2: parent ultrashort self-assembling peptide Ac-ILVAGK-NH2, without α-hydroxy acid [reference compound]” as the compound, how does the minimum gelation concentration [1, 4] read?
**A.** The minimum gelation concentration was 10 mg/mL.

**Q.** Which results are given for `CC(O)C(=O)NCC(=O)N[C@@H](CCCCN)C(N)=O` (some centres unmarked) [HO-aGK-NH2] (HELM PEPTIDE1{[CC(O)C(=O)[*:2]].G.K.[am]}$$$$V2.0)?
**A.** concentration at which significant cytotoxicity was demonstrated ([3]; 3 days, WST-1): > 10000 µg/mL; cytocompatibility / tolerance ([3]; 3 days): extremely well tolerated

**Q.** For `CC[C@H](C)[C@H](NC(C)=O)C(=O)N[C@@H](CC(C)C)C(=O)N[C@H](C(=O)O)C(C)C` [Ac-ILV] (Ac-Ile-Leu-Val-OH), which cytocompatibility / tolerance ([3]; 3 days) is on record?
**A.** Its cytocompatibility / tolerance is “extremely well tolerated”.
